The record followed here is patent publication US20110172147A1, “NEUROPEPTIDE-2 RECEPTOR (Y-2R) AGONISTS” (priority 2009, published 2011).

SMILES strings stand for the structures.

What all share (type): cell-based
One test has as its target T1, Y5R (Homo sapiens, UniProt Q15761).
T1 sequence (Q15761 1-445): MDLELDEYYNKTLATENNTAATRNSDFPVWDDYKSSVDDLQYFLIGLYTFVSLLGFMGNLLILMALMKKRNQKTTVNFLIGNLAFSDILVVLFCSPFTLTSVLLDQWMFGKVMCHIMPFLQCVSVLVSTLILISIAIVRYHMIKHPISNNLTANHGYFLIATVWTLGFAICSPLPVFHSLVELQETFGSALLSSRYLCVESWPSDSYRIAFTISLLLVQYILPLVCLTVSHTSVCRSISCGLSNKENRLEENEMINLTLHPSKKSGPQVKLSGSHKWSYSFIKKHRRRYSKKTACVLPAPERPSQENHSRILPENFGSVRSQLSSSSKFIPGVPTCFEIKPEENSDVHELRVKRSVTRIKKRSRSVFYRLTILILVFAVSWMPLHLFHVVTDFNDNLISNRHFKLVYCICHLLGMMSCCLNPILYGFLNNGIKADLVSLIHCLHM
Briefly: CaFlux Assay (FLIPR), Y5R.

Another test deals with T2, Y1R (Homo sapiens, UniProt P25929).
T2 sequence (P25929 1-384): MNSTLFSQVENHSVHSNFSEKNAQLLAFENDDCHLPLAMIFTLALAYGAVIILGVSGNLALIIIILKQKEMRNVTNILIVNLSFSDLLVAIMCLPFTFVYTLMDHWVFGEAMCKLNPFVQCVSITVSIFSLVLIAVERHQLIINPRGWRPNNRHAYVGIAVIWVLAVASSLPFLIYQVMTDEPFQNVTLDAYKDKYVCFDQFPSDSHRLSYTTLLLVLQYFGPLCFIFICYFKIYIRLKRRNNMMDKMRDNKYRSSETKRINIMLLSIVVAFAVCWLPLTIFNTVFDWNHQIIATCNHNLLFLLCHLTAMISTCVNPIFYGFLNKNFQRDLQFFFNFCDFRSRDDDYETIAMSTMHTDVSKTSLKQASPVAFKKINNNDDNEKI
Briefly: CaFlux Assay (FLIPR), Y1R.

A further test deals with Y4R (Homo sapiens, UniProt P50391). Briefly: CaFlux Assay (FLIPR), Y4R.
Test [1] addresses T3, hNPY2R (Homo sapiens, UniProt P49146).
T3 sequence (P49146 1-381): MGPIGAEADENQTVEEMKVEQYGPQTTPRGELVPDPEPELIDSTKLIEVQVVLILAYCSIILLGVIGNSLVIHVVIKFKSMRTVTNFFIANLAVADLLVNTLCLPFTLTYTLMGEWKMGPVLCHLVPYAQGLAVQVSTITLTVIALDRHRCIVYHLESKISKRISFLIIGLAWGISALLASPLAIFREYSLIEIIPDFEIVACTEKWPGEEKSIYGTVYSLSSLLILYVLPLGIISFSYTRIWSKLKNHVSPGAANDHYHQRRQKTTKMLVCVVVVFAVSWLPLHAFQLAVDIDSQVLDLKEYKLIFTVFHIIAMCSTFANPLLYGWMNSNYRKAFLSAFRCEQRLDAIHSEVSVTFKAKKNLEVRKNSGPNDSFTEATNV
Briefly: cAMP Agonist Assay, HEK293/hNPY2R. On the set-up: expressed in transfected cells; host or cells: HEK293/hNPY2R (G418 selection). As to the method:
In this example, the following materials were used: 384-well plate; Tropix cAMP-Screen Kit; cAMP ELISA System (Applied Biosystems, cat. #T1505; CS 20000); Forskolin (Calbiochem cat. # 344270); cells: HEK293/hNPY2R; growth medium: Dulbecco's modified eagle medium (D-MEM, Gibco); 10% Fetal bovine serum (FBS, Gibco), heat-inactivated; 1% Penicillin/Streptomycin (Pen 10000 unit/mL: Strep […], Gibco); […] G418 (Geneticin, Gibco cat. # 11811-031); and plating medium: DMEM/F12 w/o phenol red (Gibco); 10% FBS (Gibco, cat. # 10082-147), heat-inactivated; 1% Penicillin/Streptomycin (Gibco, cat. # 15140-122); […] G418 (Geneticin, Gibco, cat. # 11811-031).
On the first day, medium was discarded, and the monolayer cells were washed with 10 mL PBS per flask (T225). After decanting with PBS, 5 mL VERSENE (Gibco, cat #1504006) was used to dislodge the cells (5 min @37 C). The flask was gently tapped and the cell suspension was pooled. Each flask was rinsed with 10 mL plating medium and centrifuged at 1000 rpm for 5 min. The suspension was pooled and counted. The suspension was resuspended in plating medium at a density of 2.0×10^5 cells/mL for HEK293/hNPY2R. 50 microliters of cells (HEK293/hNPY2R-10,000 cells/well) were transferred into the 384-well plate using Multi-drop dispenser. The plates were incubated at 37° C. overnight. On the second day, the cells were checked for 75-85% confluence. The media and reagents were allowed to come to room temperature. Before the dilutions were prepared, the stock solution of stimulating compound in dimethyl sulphoxide (DMSO, Sigma, cat #D2650) was allowed to warm up to 32 C for 5-10 min. The dilutions were prepared in DMEM/F12 with 0.5 mM 3-Isobutyl-1-methylxanthine (IBMX, Calbiochem, cat #410957) and 0.5 mg/mL BSA. The final DMSO concentration in the stimulation medium was 1.1% with Forskolin concentration of 5 μM. The cell medium was tapped off with a gentle inversion of the cell plate on a paper towel. 50 μL of stimulation medium was placed per well (each concentration done in four replicates). The plates were incubated at room temperature for 30 min, and the cells were checked under a microscope for toxicity. After 30 minutes of treatment, the stimulation media was discarded and […] of Assay Lysis Buffer (provided in the Tropix kit) was added. The plates were incubated for 45 min @ 37° C. 20 μL of the lysate was transferred from stimulation plates into the pre-coated antibody plates (384-well) from the Tropix kit. 10 μL of AP conjugate and 20 μL of anti-cAMP antibody was added. The plates were incubated at room temperature while shaking for 1 hour. The plates were then washed 5 times with Wash Buffer, 70 μL per well for each wash. The plates were tapped to dry. 30 μL/well of CSPD/Saphire-II RTU substrate/enhancer solution was added and incubated for 45 min @ RT (shake). Signal for 1 sec/well in a Luminometer. (VICTOR-V) was measured.

For test [2], the target named is T3, hNPY2R. Briefly: CaFlux Assay (FLIPR), Y2R. On the set-up: expressed in transfected cells; host or cells: HEK-293 stably transfected with G protein chimera Gαqi9. As to the method: HEK-293 cells were stably transfected with the G protein chimera Gαqi9 and the hygromycin-B resistance gene were further transfected with the human NPY2 receptor and G418 antibiotic selection. Following selection in both hygromycin-B and G418, individual clones were assayed for their response to PYY. The transfected cells were cultured in DMEM medium supplemented with 10% fetal bovine serum, 50 μg/mL hygromycin-B, 2 mM glutamine, 100 U/mL penicillin, 100 μg/mL streptomycin and 250 μg/mL G418. Cells are harvested with trypsin-EDTA and counted using ViaCount reagent. The cell suspension volume is adjusted to 4.8×10^5 cells/mL with complete growth media. Aliquots of 25 μL are dispensed into 384 well Poly-D Lysine coated black/clear microplates (Falcon) and the microplates were placed in a 37° C. CO2 incubator overnight. Loading Buffer (Calcium-3 Assay Kit, Molecular Devices) was prepared by dissolving the contents of one vial (Express Kit) into […] Hank's Balanced Salt Solution containing 20 mM HEPES and 5 mM probenecid. Aliquots of 25 μL of diluted dye were dispensed into the cell plates and the plates are then incubated for 1 hour at 37° C. During the incubation, test compounds were prepared at 3.5× the desired concentration in HBSS (20 mM HEPES)/0.05% BSA/1% DMSO and transferred to a 384-well plate for use on FLIPR. After incubation, both the cell and compound plates were brought to the FLIPR and 20 μL of the diluted compounds were transferred to the cell plates by the FLIPR. During the assay, fluorescence readings were taken simultaneously from all 384 wells of the cell plate every 1.5 seconds. Five readings were taken to establish a stable baseline, and then 20 μL of sample was rapidly (30 μL/sec) and simultaneously added to each well of the cell plate. The fluorescence was continuously monitored before, during and after sample addition for a total elapsed time of 100 seconds. Responses (increase in peak fluorescence) in each well following addition were determined. The initial fluorescence reading from each well, prior to ligand stimulation, was used as a zero baseline value for the data from that well. The responses are expressed as % of maximal response of the positive control.

Chain of Y4R (P50391 whole entry): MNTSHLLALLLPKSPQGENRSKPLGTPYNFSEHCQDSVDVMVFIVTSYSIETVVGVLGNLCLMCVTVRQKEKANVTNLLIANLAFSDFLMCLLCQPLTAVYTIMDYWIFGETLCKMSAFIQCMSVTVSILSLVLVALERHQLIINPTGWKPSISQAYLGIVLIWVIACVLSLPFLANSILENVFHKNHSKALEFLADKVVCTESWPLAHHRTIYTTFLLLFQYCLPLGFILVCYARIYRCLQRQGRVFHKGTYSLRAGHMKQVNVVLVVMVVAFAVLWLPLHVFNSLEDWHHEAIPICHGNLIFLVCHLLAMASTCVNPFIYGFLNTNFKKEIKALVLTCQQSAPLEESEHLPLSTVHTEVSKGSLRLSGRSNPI

For orientation: EC50 means the concentration giving half of the maximal effect. Turning to `CCCCCCCCCCCCCCCCCCCC(=O)N[C@@H](CCC(=O)O)C(=O)N[C@@H](CCC(=O)O)C(=O)N[C@H](C(=O)N[C@@H](CCCCNC(=O)CCOCCOCCOCCOCCOCCOCCOCCOCCOCCOCCOCCOCCOCCOCCOCCOCCOCCOCCOCCOCCOCCOCCOCCOC)C(=O)N1CCN(c2ccc3ncn(CC(=O)N[C@@H](CCCNC(N)=O)C(=O)N[C@@H](Cc4c[nH]cn4)C(=O)N[C@@H](Cc4ccc(O)cc4)C(=O)N[C@@H](CC(C)C)C(=O)N[C@@H](CC(N)=O)C(=O)N[C@@H](Cc4c[nH]c5ccccc45)C(=O)N[C@H](C(=O)N[C@H](C(=O)N[C@@H](CCCNC(=N)N)C(=O)N[C@@H](CCC(N)=O)C(=O)N(C)[C@@H](CCCNC(=N)N)C(=O)N[C@@H](Cc4ccc(O)cc4)C(N)=O)[C@@H](C)O)C(C)C)c(=O)c3c2)CC1)[C@@H](C)CC` [Example 49], the EC50 was 518 nM at Y5R; greater than 9000 nM at Y1R; greater than 9000 nM on Y4R; 0.25 nM at hNPY2R [1]; 0.098 nM at hNPY2R [2]. For the same compound, the “Y5R FLIPR agonist character (partial agonist mark)” value on Y5R was “P.A”.
For `CCCCCCCCCCCCCCCC(=O)NCCCCCC(=O)N[C@H](C(=O)N[C@@H](CCCCNC(=O)CCOCCOCCOCCOCCOCCOCCOCCOC)C(=O)N1CCN(c2ccc3ncn(CC(=O)N[C@@H](CCCNC(N)=O)C(=O)N[C@@H](Cc4c[nH]cn4)C(=O)N[C@@H](Cc4ccc(O)cc4)C(=O)N[C@@H](CC(C)C)C(=O)N[C@@H](CC(N)=O)C(=O)N[C@@H](Cc4c[nH]c5ccccc45)C(=O)N[C@H](C(=O)N[C@H](C(=O)N[C@@H](CCCNC(=N)N)C(=O)N[C@@H](CCC(N)=O)C(=O)N(C)[C@@H](CCCNC(=N)N)C(=O)N[C@@H](Cc4ccc(O)cc4)C(N)=O)[C@@H](C)O)C(C)C)c(=O)c3c2)CC1)[C@@H](C)CC` [Example 30], the EC50 is 5690 nM at Y5R; greater than 6000 nM at Y1R; greater than 6000 nM at Y4R; 0.47 nM at hNPY2R [1]; 0.143 nM on hNPY2R [2].
For `CCCCCCCCCCCCCCCC(=O)NCCCCCC(=O)NCCCCCC(=O)N[C@H](C(=O)N[C@@H](CCCCNC(=O)CCOCCOCCOCCOCCOCCOCCOCCOCCOCCOCCOCCOCCOCCOCCOCCOC)C(=O)N1CCN(c2ccc3ncn(CC(=O)N[C@@H](CCCNC(=N)N)C(=O)N[C@@H](Cc4c[nH]cn4)C(=O)N[C@@H](Cc4ccc(O)cc4)C(=O)N[C@@H](CC(C)C)C(=O)N[C@@H](CC(N)=O)C(=O)N[C@@H](Cc4c[nH]c5ccccc45)C(=O)N[C@H](C(=O)N[C@H](C(=O)N[C@@H](CCCNC(=N)N)C(=O)N[C@@H](CCC(N)=O)C(=O)N(C)[C@@H](CCCNC(=N)N)C(=O)N[C@@H](Cc4ccc(O)cc4)C(N)=O)[C@@H](C)O)C(C)C)c(=O)c3c2)CC1)[C@@H](C)CC` [Example 41], the half-maximal effective concentration (EC50) on Y5R was 1320 nM; on Y1R, greater than 6000 nM; on Y4R, greater than 6000 nM; at hNPY2R [1], 0.17 nM; at hNPY2R [2], 0.04 nM.
Turning to `CCCCCCCCCCCCCCCCCCCC(=O)N[C@@H](CCC(=O)N[C@@H](CCC(=O)NCCCC[C@H](NC(=O)[C@@H](NC(=O)CCOCCOCCOCCOCCOCCOCCOCCOCCOCCOCCOCCOC)[C@@H](C)CC)C(=O)N1CCN(c2ccc3ncn(CC(=O)N[C@@H](CCCNC(=N)N)C(=O)N[C@@H](Cc4c[nH]cn4)C(=O)N[C@@H](Cc4ccc(O)cc4)C(=O)N[C@@H](CC(C)C)C(=O)N[C@@H](CC(N)=O)C(=O)N[C@@H](Cc4c[nH]c5ccccc45)C(=O)N[C@H](C(=O)N[C@H](C(=O)N[C@@H](CCCNC(=N)N)C(=O)N[C@@H](CCC(N)=O)C(=O)N(C)[C@@H](CCCNC(=N)N)C(=O)N[C@@H](Cc4ccc(O)cc4)C(N)=O)[C@@H](C)O)C(C)C)c(=O)c3c2)CC1)C(=O)O)C(=O)O` [Example 24], the “Y5R FLIPR agonist character (partial agonist mark)” value at Y5R is “P.A”.
